Earlier results, collected in PMC10780633, “Novel Multi-Target Agents Based on the Privileged Structure of 4-Hydroxy-2-quinolinone” (Molecules, 2023).

Set-up: method as in PMID 16955399, PMID 26834836
Conditions: more potent than linomide; cited from earlier work

Structure (SMILES): COc1cccc2c1c(O)c(C(=O)N(C)c1ccc(C(F)(F)F)cc1)c(=O)n2C [Tasquinimod]
- Anti-tumor potency relative to linomide: 30–60 times
